Laboratory results as given in patent publication US9381257B2, “Triarylmethyl radicals” (BRACCO IMAGING S.P.A., priority 2012, dated 2016).

Columns and labels:
[1] = DNP polarization build-up and dissolution of ethylacetoacetate with the radical as polarizing agent; details: 18 mM radical in 15-Crown-5 / 1,3-13C2 ethylacetoacetate; DNP at 1.2 K, 3.35 T, microwave irradiation
Experimental: Radical 1 (1.50 mg, 1.4 μmol) was dissolved in 15-Crown-5 (60.5 μl, 67.2 mg) to make a 24 mM solution. To 30 μl (33.7 mg) of this solution was added 1,3-^13C2 ethylacetoacetate (10.5 mg, 79 μmol, 158 μmol ^13C). The radical 1 concentration in the mixture was 18 mM.
43 mg of the composition prepared above were transferred from the Eppendorf tube to a sample cup and the sample cup was inserted into a DNP polarizer. The composition was polarised under DNP conditions at 1.2 K in a 3.35 T magnetic field under irradiation with microwave (93.900 GHz). The calculated solid-state polarization was 17% and the polarization build-up constant was 900 s.
The sample was dissolved in 6 ml 40 mM phosphate buffer pH 7.3+100 mg/l EDTA. A time series of 1D 13C-NMR spectra were recorded with a total delay between the pulses of 3 s. The liquid state polarization was 14% after 12 s transfer time. The pH was 7.3 in the dissolved sample. […]
43 mg of the composition prepared above were transferred from the Eppendorf tube to a sample cup and the sample cup was inserted into a DNP polarizer. […] The calculated solid-state polarization was 18% and the polarization build-up constant was 1700 s.
The sample was dissolved in 6 ml 40 mM phosphate buffer pH 7.3+100 mg/l EDTA. A time series of 1D 13C-NMR spectra were recorded with a total delay between the pulses of 3 s. […]

[2] = Precipitation of the radical on aqueous dissolution and removal by mechanical filtration (UV-Vis check of filtrate); assay type: physicochemical
Experimental: The sample was dissolved in 6 ml 40 mM phosphate buffer pH 7.3+100 mg/l EDTA. A time series of 1D 13C-NMR spectra were recorded with a total delay between the pulses of 3 s. The liquid state polarization was 14% after 12 s transfer time. The pH was 7.3 in the dissolved sample.
The sample was dissolved in 6 ml 40 mM phosphate buffer pH 7.3+100 mg/l EDTA. A time series of 1D 13C-NMR spectra were recorded with a total delay between the pulses of 3 s. The liquid state polarization was 15% after 12 s transfer time. The pH was 7.3 in the dissolved sample. The sample was filtered through a syringe filter (Acrodisk 25 mm PVDF filter, 0.45 μm pore size). Filtration of the full volume was completed in <3 s. […] Since the high extinction coefficients of the trityl radicals allow reliable determination of concentration down to approximately 1-1.5 μM, the concentration in the filtrate was below these values. The radical was removed to >99%.

precipitation of the radical in water dissolution ([2]; dissolved in 6 ml 40 mM phosphate buffer pH 7.3 + 100 mg/l EDTA): does not precipitate
Substance: tris{8-carboxyl-2,2,6,6-tetramethyl-benzo(1,2-d:4,5-dS)bis(1,3)dithiole-4-yl}methyl sodium salt [Radical 1, reference compound]
polarization build-up constant [1]: 900 s
removal of the radical by mechanical filtration ([2]; after water dissolution): cannot be removed by mechanical filtration
